Experiments:
Assay type in all cases: cell-based
[1] = molecular target: T1, ZBTB7A (Homo sapiens, UniProt O95365+Q96SW2); experiment: HUDEP-2 ZBTB7A HiBiT degradation assay; details: HiBiT-tagged ZBTB7A degradation in HUDEP-2 cells, 24 hours of treatment; read-out: ZBTB7A EC50
T1 construct: HUDEP-2 cells engineered to express a HiBiT tag in either the WIZ (Widely interspaced zinc finger) or ZBTB7A
Summary of the method: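 HiBiT-tagged HUDEP-2 cells were pre-cultured 48 h in IMDM with EPO, SCF, doxycycline and 5% human plasma, then exposed to compounds at 1.0×10^6 cells/ml for 24 h at 37 °C. Nano-Glo HiBiT lytic luminescence, normalised to DMSO over 10 concentrations, gave EC50 and Y-min.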

[2] = molecular target: T2, WIZ (Homo sapiens, UniProt O95785+Q96SW2); experiment: HUDEP-2 WIZ HiBiT degradation assay; details: HiBiT-tagged WIZ degradation in HUDEP-2 cells, 24 hours of treatment; read-out: WIZ EC50
T2 construct: HUDEP-2 cells engineered to express a HiBiT tag in either the WIZ (Widely interspaced zinc finger) or ZBTB7A
T2 sequence (O95785 whole entry): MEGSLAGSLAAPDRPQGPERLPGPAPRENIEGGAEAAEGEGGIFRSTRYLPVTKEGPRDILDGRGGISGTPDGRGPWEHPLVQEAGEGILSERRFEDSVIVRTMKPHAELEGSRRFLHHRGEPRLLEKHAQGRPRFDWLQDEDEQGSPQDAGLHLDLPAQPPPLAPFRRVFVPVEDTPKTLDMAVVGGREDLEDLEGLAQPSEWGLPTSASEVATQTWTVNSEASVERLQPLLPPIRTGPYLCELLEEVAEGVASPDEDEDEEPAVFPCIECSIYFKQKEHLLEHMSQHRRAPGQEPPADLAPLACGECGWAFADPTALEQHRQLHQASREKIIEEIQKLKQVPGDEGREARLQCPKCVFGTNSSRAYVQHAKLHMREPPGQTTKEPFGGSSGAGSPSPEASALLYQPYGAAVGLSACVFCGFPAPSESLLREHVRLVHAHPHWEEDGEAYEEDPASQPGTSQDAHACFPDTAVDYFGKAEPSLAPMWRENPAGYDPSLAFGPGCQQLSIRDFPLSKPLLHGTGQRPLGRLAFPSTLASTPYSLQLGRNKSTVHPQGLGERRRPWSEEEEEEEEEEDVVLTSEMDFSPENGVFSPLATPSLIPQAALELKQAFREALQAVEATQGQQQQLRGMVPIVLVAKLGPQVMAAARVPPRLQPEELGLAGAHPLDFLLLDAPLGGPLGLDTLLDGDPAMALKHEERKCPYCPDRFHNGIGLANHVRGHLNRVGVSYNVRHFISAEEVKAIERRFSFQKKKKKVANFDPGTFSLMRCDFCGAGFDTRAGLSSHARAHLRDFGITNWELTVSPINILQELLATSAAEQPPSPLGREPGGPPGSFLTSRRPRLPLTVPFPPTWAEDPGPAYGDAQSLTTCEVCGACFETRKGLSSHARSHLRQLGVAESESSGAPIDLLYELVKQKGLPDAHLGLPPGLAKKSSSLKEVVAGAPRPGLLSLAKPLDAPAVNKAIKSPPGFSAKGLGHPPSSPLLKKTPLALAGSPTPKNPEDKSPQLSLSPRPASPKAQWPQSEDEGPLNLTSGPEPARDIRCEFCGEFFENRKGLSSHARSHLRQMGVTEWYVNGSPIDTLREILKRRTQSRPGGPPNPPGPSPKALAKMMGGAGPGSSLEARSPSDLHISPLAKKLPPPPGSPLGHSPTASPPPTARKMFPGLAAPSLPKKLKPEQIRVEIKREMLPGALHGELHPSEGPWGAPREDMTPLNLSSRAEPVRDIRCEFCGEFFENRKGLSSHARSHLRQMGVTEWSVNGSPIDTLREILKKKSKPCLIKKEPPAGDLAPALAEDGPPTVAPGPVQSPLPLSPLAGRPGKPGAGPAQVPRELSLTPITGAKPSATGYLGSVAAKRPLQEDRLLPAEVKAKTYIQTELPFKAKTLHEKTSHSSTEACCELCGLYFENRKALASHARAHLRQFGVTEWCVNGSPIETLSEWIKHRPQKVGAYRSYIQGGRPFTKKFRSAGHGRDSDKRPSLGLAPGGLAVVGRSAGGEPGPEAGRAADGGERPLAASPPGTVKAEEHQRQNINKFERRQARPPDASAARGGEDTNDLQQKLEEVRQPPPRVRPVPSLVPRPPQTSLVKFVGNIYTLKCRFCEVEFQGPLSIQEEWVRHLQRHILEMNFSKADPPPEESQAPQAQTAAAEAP
T2 sequence (Q96SW2 whole entry): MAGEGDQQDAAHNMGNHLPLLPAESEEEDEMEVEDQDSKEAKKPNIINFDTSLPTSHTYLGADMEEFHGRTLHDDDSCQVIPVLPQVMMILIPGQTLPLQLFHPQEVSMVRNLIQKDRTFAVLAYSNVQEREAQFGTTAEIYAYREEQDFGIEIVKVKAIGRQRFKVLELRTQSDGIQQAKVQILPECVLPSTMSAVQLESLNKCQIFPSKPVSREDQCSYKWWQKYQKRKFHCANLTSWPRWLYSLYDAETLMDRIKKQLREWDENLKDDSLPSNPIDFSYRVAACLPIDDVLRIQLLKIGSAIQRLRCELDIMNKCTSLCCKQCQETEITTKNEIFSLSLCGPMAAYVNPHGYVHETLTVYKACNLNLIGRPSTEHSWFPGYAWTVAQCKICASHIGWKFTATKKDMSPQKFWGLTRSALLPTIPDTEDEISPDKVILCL
T2 sequence (Q16531 whole entry partner): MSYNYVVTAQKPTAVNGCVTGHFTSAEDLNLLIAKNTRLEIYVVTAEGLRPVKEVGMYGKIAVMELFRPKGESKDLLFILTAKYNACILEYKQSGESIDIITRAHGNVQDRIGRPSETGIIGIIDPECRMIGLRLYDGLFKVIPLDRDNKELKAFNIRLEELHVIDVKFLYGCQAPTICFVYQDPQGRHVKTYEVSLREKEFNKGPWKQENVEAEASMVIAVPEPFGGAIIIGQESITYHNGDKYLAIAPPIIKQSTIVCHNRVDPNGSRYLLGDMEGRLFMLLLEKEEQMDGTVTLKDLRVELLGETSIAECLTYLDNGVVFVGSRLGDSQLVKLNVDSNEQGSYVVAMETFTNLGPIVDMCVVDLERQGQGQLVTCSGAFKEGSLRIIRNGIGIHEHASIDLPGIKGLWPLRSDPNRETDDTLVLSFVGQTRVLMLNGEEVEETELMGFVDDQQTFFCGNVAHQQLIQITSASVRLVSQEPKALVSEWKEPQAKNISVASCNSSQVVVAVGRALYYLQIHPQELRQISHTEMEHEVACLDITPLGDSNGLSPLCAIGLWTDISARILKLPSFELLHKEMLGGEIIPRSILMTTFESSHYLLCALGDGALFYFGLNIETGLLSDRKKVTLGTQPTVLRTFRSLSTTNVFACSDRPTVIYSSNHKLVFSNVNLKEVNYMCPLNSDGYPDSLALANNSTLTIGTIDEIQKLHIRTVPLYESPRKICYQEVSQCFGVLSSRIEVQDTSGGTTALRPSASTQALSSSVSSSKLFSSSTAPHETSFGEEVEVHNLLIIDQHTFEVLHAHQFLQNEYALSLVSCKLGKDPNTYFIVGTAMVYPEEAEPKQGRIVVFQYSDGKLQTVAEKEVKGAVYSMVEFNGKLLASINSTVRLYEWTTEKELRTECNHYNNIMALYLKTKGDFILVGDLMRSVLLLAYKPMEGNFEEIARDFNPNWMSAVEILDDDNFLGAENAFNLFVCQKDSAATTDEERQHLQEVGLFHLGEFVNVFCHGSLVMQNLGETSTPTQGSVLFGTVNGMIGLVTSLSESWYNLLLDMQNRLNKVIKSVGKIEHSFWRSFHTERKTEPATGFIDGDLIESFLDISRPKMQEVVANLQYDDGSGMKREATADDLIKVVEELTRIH
Summary of the method: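 HiBiT-tagged HUDEP-2 cells at 1.0×10^6 cells/ml in SFEM II with SCF, EPO, dexamethasone and doxycycline, treated 24 h at 37 °C with a 10-point series ([…]). Luminescence after HiBiT lytic detection, normalized to DMSO; EC50 and Y-min from fitted curves.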

[3] = test system: HbF; experiment: HbF HiBiT induction assay in HUDEP-2 cells; details: HUDEP-2 cells with HiBiT tag in HBG1/2, 72 hours of treatment; area under the dose response curve, higher AUC = greater HbF induction
Summary of the method: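 HUDEP-2 cells carrying a HiBiT tag on HBG1/2 were exposed to compounds for 72 h at 37° C, 5% CO2, in IMDM with EPO, hSCF, DOX, transferrin, insulin, heparin and 5% human plasma. HiBiT luminescence was read after lytic detection; HbF induction is expressed as dose-response AUC, alongside EC50 and Ymax.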

T1 sequence (O95365 whole entry): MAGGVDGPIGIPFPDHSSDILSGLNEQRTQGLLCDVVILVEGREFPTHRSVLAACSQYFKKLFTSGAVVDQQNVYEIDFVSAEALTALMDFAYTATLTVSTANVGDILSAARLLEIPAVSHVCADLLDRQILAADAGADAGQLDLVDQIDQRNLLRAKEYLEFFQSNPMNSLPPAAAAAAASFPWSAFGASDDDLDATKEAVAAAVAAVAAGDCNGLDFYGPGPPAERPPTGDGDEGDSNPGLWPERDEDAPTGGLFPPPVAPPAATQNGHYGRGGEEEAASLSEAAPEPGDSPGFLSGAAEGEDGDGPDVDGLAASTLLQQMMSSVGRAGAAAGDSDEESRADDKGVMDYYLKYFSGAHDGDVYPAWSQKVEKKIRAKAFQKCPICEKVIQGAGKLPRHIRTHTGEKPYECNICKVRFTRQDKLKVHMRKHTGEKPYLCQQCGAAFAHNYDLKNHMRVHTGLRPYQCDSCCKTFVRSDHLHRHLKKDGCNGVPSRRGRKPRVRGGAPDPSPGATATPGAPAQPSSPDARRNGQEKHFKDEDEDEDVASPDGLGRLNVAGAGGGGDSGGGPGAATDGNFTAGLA
T1 sequence (Q96SW2 whole entry): as the sequence (Q96SW2 whole entry) above
T1 sequence (Q16531 whole entry partner): as the sequence (Q16531 whole entry partner) above

SMILES | DC50 [1] [nM] | DC50 [2] [nM] | HBF AUC [3]
CCO[C@H]1CC[C@H](c2cc3c(cc2Nc2cccc4c2C(=O)N([C@@H]2CCC(=O)NC2=O)C4=O)N(C)C(=O)[C@@H](C)O3)CC1 [Compound 54, 2-((R)-2,6-dioxopiperidin-3-yl)-4-(((R)-7-((1r,4R)-4-ethoxycyclohexyl)-2,4-dimethyl-3-oxo-3,4-dihydro-2H-benzo[b][1,4]oxazin-6-yl)amino)isoindoline-1,3-dione] | 14 | 8 | ++ (++ = 100 ≤ AUC < 150)
CCO[C@H]1CC[C@H](c2cc3c(cc2Nc2cccc4c2C(=O)N([C@@H]2CCC(=O)NC2=O)C4=O)N(C)C(=O)[C@H](C)O3)CC1 [Compound 55, 2-((R)-2,6-dioxopiperidin-3-yl)-4-(((S)-7-((1r,4S)-4-ethoxycyclohexyl)-2,4-dimethyl-3-oxo-3,4-dihydro-2H-benzo[b][1,4]oxazin-6-yl)amino)isoindoline-1,3-dione] | 9 | 6 | ++ (++ = 100 ≤ AUC < 150)
CCN1C(=O)COc2cc(-c3cc(C)nc(C)c3)c(Nc3cccc4c3C(=O)N(C3CCC(=O)NC3=O)C4=O)cc21 (stereo not drawn) [Compound 56, 4-((7-(2,6-dimethylpyridin-4-yl)-4-ethyl-3-oxo-3,4-dihydro-2H-benzo[b][1,4]oxazin-6-yl)amino)-2-(2,6-dioxopiperidin-3-yl)isoindoline-1,3-dione] | 43 | 20 | ++ (++ = 100 ≤ AUC < 150)
Cc1cc(-c2cc3c(cc2Nc2cccc4c2C(=O)N(C2CCC(=O)NC2=O)C4=O)N(C)C(=O)CO3)cc(C2CC2)n1 (stereo not drawn) [Compound 57, 4-((7-(2-cyclopropyl-6-methylpyridin-4-yl)-4-methyl-3-oxo-3,4-dihydro-2H-benzo[b][1,4]oxazin-6-yl)amino)-2-(2,6-dioxopiperidin-3-yl)isoindoline-1,3-dione] | 54 | 18 | +++ (+++ = AUC ≥ 150)
Cc1cc(-c2cc3c(cc2Nc2cccc4c2C(=O)N([C@@H]2CCC(=O)NC2=O)C4=O)N(C)C(=O)CO3)c(F)cn1 [Compound 58, (R)-2-(2,6-dioxopiperidin-3-yl)-4-((7-(5-fluoro-2-methylpyridin-4-yl)-4-methyl-3-oxo-3,4-dihydro-2H-benzo[b][1,4]oxazin-6-yl)amino)isoindoline-1,3-dione] | 10 | 9 | ++ (++ = 100 ≤ AUC < 150)
Cc1cc(-c2cc3c(cc2Nc2cccc4c2C(=O)N([C@@H]2CCC(=O)NC2=O)C4=O)N(C)C(=O)CO3)ccn1 [Compound 59, (R)-2-(2,6-dioxopiperidin-3-yl)-4-((4-methyl-7-(2-methylpyridin-4-yl)-3-oxo-3,4-dihydro-2H-benzo[b][1,4]oxazin-6-yl)amino)isoindoline-1,3-dione] | 10 | 8 | +++ (+++ = AUC ≥ 150)
CNc1cc(-c2cc3c(cc2Nc2cccc4c2C(=O)N(C2CCC(=O)NC2=O)C4=O)N(C)C(=O)CO3)c(F)cn1 (stereo not drawn) [Compound 60, 2-(2,6-dioxopiperidin-3-yl)-4-((7-(5-fluoro-2-(methylamino)pyridin-4-yl)-4-methyl-3-oxo-3,4-dihydro-2H-benzo[b][1,4]oxazin-6-yl)amino)isoindoline-1,3-dione] | 11 | 9 | +++ (+++ = AUC ≥ 150)
Cc1cc(-c2cc3c(cc2Nc2cccc4c2C(=O)N([C@H]2CCC(=O)NC2=O)C4=O)N(C)C(=O)CO3)c(F)cn1 [Compound 61, (S)-2-(2,6-dioxopiperidin-3-yl)-4-((7-(5-fluoro-2-methylpyridin-4-yl)-4-methyl-3-oxo-3,4-dihydro-2H-benzo[b][1,4]oxazin-6-yl)amino)isoindoline-1,3-dione] | 11 | 7 | ++ (++ = 100 ≤ AUC < 150)
Cc1cc(-c2cc3c(cc2Nc2cccc4c2C(=O)N(C2CCC(=O)NC2=O)C4=O)N(C)C(=O)OC3)cc(C)n1 (stereo not drawn) [Compound 62, 4-((6-(2,6-dimethylpyridin-4-yl)-1-methyl-2-oxo-1,4-dihydro-2H-benzo[d][1,3]oxazin-7-yl)amino)-2-(2,6-dioxopiperidin-3-yl)isoindoline-1,3-dione] | 19 | 17 | ++ (++ = 100 ≤ AUC < 150)
CC(=O)N1CCCC(c2cc3c(cc2Nc2cccc4c2C(=O)N([C@H]2CCC(=O)NC2=O)C4=O)N(C)C(=O)CO3)C1 (stereo partly drawn) [Compound 63, 4-((7-(1-acetylpiperidin-3-yl)-4-methyl-3-oxo-3,4-dihydro-2H-benzo[b][1,4]oxazin-6-yl)amino)-2-((S)-2,6-dioxopiperidin-3-yl)isoindoline-1,3-dione] | 14 | 16 | ++ (++ = 100 ≤ AUC < 150)
CCOc1nccc(-c2cc3c(cc2Nc2cccc4c2C(=O)N(C2CCC(=O)NC2=O)C4=O)N(C)C(=O)CO3)c1C (stereo not drawn) [Compound 64, 2-(2,6-dioxopiperidin-3-yl)-4-((7-(2-ethoxy-3-methylpyridin-4-yl)-4-methyl-3-oxo-3,4-dihydro-2H-benzo[b][1,4]oxazin-6-yl)amino)isoindoline-1,3-dione] | 53 | 12 | ++ (++ = 100 ≤ AUC < 150)
COc1nccc(-c2cc3oc(=O)n(C)c3cc2Nc2cccc3c2C(=O)N(C2CCC(=O)NC2=O)C3=O)c1F (stereo not drawn) [Compound 65, 2-(2,6-dioxopiperidin-3-yl)-4-((6-(3-fluoro-2-methoxypyridin-4-yl)-3-methyl-2-oxo-2,3-dihydrobenzo[d]oxazol-5-yl)amino)isoindoline-1,3-dione] | 96 | 41 | + (+ = 15 ≤ AUC < 100)
CNc1cc(-c2cc3c(cc2Nc2cccc4c2C(=O)N(C2CCC(=O)NC2=O)C4=O)N(C)C(=O)CO3)cc(C)n1 (stereo not drawn) [Compound 66, 2-(2,6-dioxopiperidin-3-yl)-4-((4-methyl-7-(2-methyl-6-(methylamino)pyridin-4-yl)-3-oxo-3,4-dihydro-2H-benzo[b][1,4]oxazin-6-yl)amino)isoindoline-1,3-dione] | 188 | 15 | ++ (++ = 100 ≤ AUC < 150)
Cc1cc(-c2c(Nc3cccc4c3C(=O)N([C@H]3CCC(=O)NC3=O)C4=O)cc3c(c2F)OCC(=O)N3C)c(F)cn1 [Compound 67, 2-((S)-2,6-dioxopiperidin-3-yl)-4-((8-fluoro-7-(5-fluoro-2-methylpyridin-4-yl)-4-methyl-3-oxo-3,4-dihydro-2H-benzo[b][1,4]oxazin-6-yl)amino)isoindoline-1,3-dione] | 25 | 17 | ++ (++ = 100 ≤ AUC < 150)
CN1C(=O)COc2cc([C@H]3CC[C@H](C#N)CC3)c(Nc3cccc4c3C(=O)N([C@H]3CCC(=O)NC3=O)C4=O)cc21 [Compound 68, (1S,4r)-4-(6-((2-((S)-2,6-dioxopiperidin-3-yl)-1,3-dioxoisoindolin-4-yl)amino)-4-methyl-3-oxo-3,4-dihydro-2H-benzo[b][1,4]oxazin-7-yl)cyclohexane-1-carbonitrile] | 6 | 3 | +++ (+++ = AUC ≥ 150)
Cc1cncc(-c2c(Nc3cccc4c3C(=O)N([C@H]3CCC(=O)NC3=O)C4=O)cc3c(c2F)OCC(=O)N3C)c1 [Compound 69, (S)-2-(2,6-dioxopiperidin-3-yl)-4-((8-fluoro-4-methyl-7-(5-methylpyridin-3-yl)-3-oxo-3,4-dihydro-2H-benzo[b][1,4]oxazin-6-yl)amino)isoindoline-1,3-dione] | 54 | 20 | + (+ = 15 ≤ AUC < 100)
Cc1cc(-c2cc3c(cc2Nc2cccc4c2C(=O)N([C@H]2CCC(=O)NC2=O)C4=O)N(C)C(=O)OC3C)ccn1 (stereo partly drawn) [Compound 70, 4-((1,4-dimethyl-6-(2-methylpyridin-4-yl)-2-oxo-1,4-dihydro-2H-benzo[d][1,3]oxazin-7-yl)amino)-2-((S)-2,6-dioxopiperidin-3-yl)isoindoline-1,3-dione] | 15 | 19 | ++ (++ = 100 ≤ AUC < 150)
COc1ccc(-c2cc3c(cc2Nc2cccc4c2C(=O)N([C@H]2CCC(=O)NC2=O)C4=O)N(C)C(=O)O[C@H]3C)cc1F [Compound 71, 2-((S)-2,6-dioxopiperidin-3-yl)-4-(((S)-6-(3-fluoro-4-methoxyphenyl)-1,4-dimethyl-2-oxo-1,4-dihydro-2H-benzo[d][1,3]oxazin-7-yl)amino)isoindoline-1,3-dione] | 10 | 16 | ++ (++ = 100 ≤ AUC < 150)
Cc1cc(-c2cc3c(cc2Nc2cccc4c2C(=O)N([C@H]2CCC(=O)NC2=O)C4=O)N(C)C(=O)OC3C)cc(C)n1 (stereo partly drawn) [Compound 72, 4-((6-(2,6-dimethylpyridin-4-yl)-1,4-dimethyl-2-oxo-1,4-dihydro-2H-benzo[d][1,3]oxazin-7-yl)amino)-2-((S)-2,6-dioxopiperidin-3-yl)isoindoline-1,3-dione] | 21 | 14 | +++ (+++ = AUC ≥ 150)

Reference: US20250333407A1, “Compounds and Their Use for Treatment of Hemoglobinopathies” (Bristol-Myers Squibb Company, priority 2024, published 2025)
